Measured values reported in patent US9550811B2, “Peptide scaffold design” (BIONOR IMMUNO AS, priority 2010, dated 2017).
Where “and” joins values, the source holds several entries; their conditions need not be identical. Equal entries are not always repeated. Where two headings read alike, the source gives them in different places. Where no end group is shown, it is not given here. [ ]: non-standard residue; d: D form. Cit = NC(=O)NCCC[C@H](N)C(=O)O; Nle = CCCC[C@H](N)C(=O)O

Key:
[1] = system: PBMC samples from HCV patients; experiment: Human IFN-gamma cytotoxic T-cell (CTL) response by ELISPOT assay; type: cell-based
Protocol: Human IFN-Gamma Cytotoxic T-Cell (CTL) Response by ELISPOT Assay
Briefly, at day 1, PBMC samples from HCV patients were incubated in flasks (430 000 PBMCs/cm2) for 2 h at 37° C., 5% CO2 in covering amount of culture media (RPMI 1640 Fisher Scientific; Cat No. PAAE15-039 supplemented with L-Glutamine, (MedProbe Cat. No. 13E17-605E, 10% Foetal Bovine serum (FBS), Fisher Scientific Cat. No. A15-101) and Penicillin/Streptomycin, (Fisher Acientific Cat. No. P11-010) in order to allow adherence of monocytes. Non-adherent cells were isolated, washed, and frozen in 10% V/V DMSO in FBS until further usage. Adherent cells were carefully washed with culture media, followed by incubation at 37° C. until day 3 in culture media containing 2 μg/ml final concentration of hrGM-CSF (Xiamen amoytop biotech co, cat no: 3004.9090.90) & 1 μg/ml hrIL-4 (Invitrogen, Cat no: PHC0043), and this procedure was then repeated at day 6. At day 7, cultured dendritic cells (5 000-10 000 per well) were added to ELISPOT (Millipore multiscreen HTS) plates coated with 0.5 μg/well anti-human γ Interferon together with thawed autologous non-adherent cells (200 000 per well), antigen samples (1-8 ug/ml final concentration for peptide antigens; 5 ug/ml final concentration for Concanavalin A (Sigma, Cat no: C7275) or PHA (Sigma, Cat no: L2769)) & anti-Anergy antibodies (0.03-0.05 ug/ml final concentration for both anti-PD-1 (eBioscience, cat no: 16-9989-82) & anti-PD-L1 (eBioscience, cat no: 16-5983-82)). Plates were incubated overnight and spots were developed according to manufacturer. Spots were read on ELISPOT reader (CTL-ImmunoSpot® S5 UV Analyzer).

human PBMCs [2] = type: cell-based
human PBMCs [3] = experiment: Extracellular staining for biotinylated peptides (flow cytometry); type: cell-based
Protocol: 96-well U-bottom polystyrene plates (NUNC, cat no: 163320) were used for staining of human PBMCs. Briefly, 8 ul of N- or C-terminally biotinylated peptides according to table 1 or table 2 (i.e. 5 mM, 2.5 mM & 1.25 mM tested for each peptide; all peptides manufactured by Schafer) were incubated at 37° C. for 2 h with 40 ul of PBMC (12.5×10^6 cells/ml) from blood donors. Cells were then washed 3× with 150 ul of Cellwash (BD, cat no: 349524), then stained with Streptavidin-APC (BD, cat no: 554067) & Anti-hCD11c (eBioscience, cat no: 12-0116) according to manufacturer at 4° C. for 30 min aiming to visualize biotinylated peptides & dendritic cells, respectively. Cells were then washed 3× with 150 ul of Cellwash (BD, cat no: 349524), followed by resuspension in staining buffer (BD, cat no: 554656) before flow cytometry. Dendritic cells were gated as CD11c+ events outside lymphocyte region (i.e. higher FSC & SSC signals than lymphocytes). 200 000 total cells were acquired on a FACSCanto II flow cytometer with HTS loader, and histograms for both total cells & dendritic cells with respect to peptide-fluorescence (i.e. GeoMean) were prepared.

DC-cells = experiment: Cell penetration assay: staining for biotinylated peptides, dendritic cells gated as CD11c+; type: cell-based, human; details: low concentration of peptides (208 uM)
Method in brief: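 Human PBMCs from one donor incubated 2 h at 37 °C with N- or C-terminally biotinylated peptides (5, 2.5, 1.25 mM; concentrations as added), then trypsinized, fixed/permeabilized and stained with streptavidin-APC and anti-CD11c. Flow cytometry GeoMean of peptide fluorescence in total cells and CD11c+ dendritic cells.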

HLA-B8 = experiment: REVEAL binding assay; details: score as percentage of the signal generated by the positive control peptide
Source text: (§2) HLA-A1, HLA-A2, HLA-A3, HLA-A11, HLA-A24, HLA-A29, HLA-B7, HLA-B8, HLA-B14, HLA-B15, HLA-B27, HLA-B35, HLA-B40.
(§3) The REVEAL™ binding assay determined the ability of each candidate peptide to bind to one or more MHC class I alleles and stabilizing the MHC-peptide complex. […] Detection is based on the presence or absence of the native conformation of the MHC-peptide complex. Each peptide is given a score relative to the positive control peptide, which is a known T cell epitope.

HLA-A29 = experiment: REVEAL binding assay; details: score as percentage of the signal generated by the positive control peptide
HLA-B7 = HLA-B7 (Homo sapiens, UniProt P01889); experiment: REVEAL binding assay; details: score as percentage of the signal generated by the positive control peptide
Method in brief: (§1)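 Synthetic nonamer peptides were tested for their ability to bind and stabilize MHC class I–peptide complexes, detected by the native conformation of the complex. Each peptide is scored relative to a positive-control known T-cell epitope.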

HLA-A2 = HLA-A2 (Homo sapiens, UniProt P04439, D140Y/D185E/D98H/E176V/E277Q/G131W/G231S/I119V/I121R/I166T/I218V/N151K/N90K/P208A/P217A/Q86G/Q94H/R138H/R169H); experiment: REVEAL binding assay; details: score as percentage of the signal generated by the positive control peptide
Method in brief: as §1

HLA-B27 = HLA-B27 (Homo sapiens, UniProt P01889, D138H/D201E/E176V/E204Q/G107R/H137Y/K202T/N104T/N87E/Q56L/Q94K/R106L/R155S/R180L/S101D/S121N/S48T/Y140D/Y33H/Y91C); experiment: REVEAL binding assay; details: score as percentage of the signal generated by the positive control peptide
Method in brief: as §1

HLA-A11 = HLA-A11 (Homo sapiens, UniProt P04439, A114D/F33Y/S129P); experiment: REVEAL binding assay; details: score as percentage of the signal generated by the positive control peptide
Method in brief: as §1

HLA-A3 = HLA-A3 (Homo sapiens, UniProt P04439); experiment: REVEAL binding assay; details: score as percentage of the signal generated by the positive control peptide
Method in brief: as §1

HLA-B14 = experiment: REVEAL binding assay; details: score as percentage of the signal generated by the positive control peptide
Source text: as §2, §3

HLA-B15 = experiment: REVEAL binding assay; details: score as percentage of the signal generated by the positive control peptide
Source text: as §2, §3

HLA-A24 = experiment: REVEAL binding assay; details: score as percentage of the signal generated by the positive control peptide
Protocol: (§4) Binding properties to HLA for the ninemers listed in table 6 were tested for the following HLA-classes:
as §2, §3

HLA-A1 = experiment: REVEAL binding assay; details: score as percentage of the signal generated by the positive control peptide
Protocol: as §4, §2, §3

HLA-B35 = experiment: REVEAL binding assay; details: score as percentage of the signal generated by the positive control peptide
HLA-B40 = experiment: REVEAL binding assay; details: score as percentage of the signal generated by the positive control peptide
Method in brief: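 Synthetic 9-mer peptides, MALDI-TOF QC'd, were incubated with each class I allele; complex stabilization was detected by native conformation, scored relative to a known T cell epitope and called pass or fail.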

[4] = Example 4, negative control = 1.00

HLA-A3, sequence (P04439 25-299): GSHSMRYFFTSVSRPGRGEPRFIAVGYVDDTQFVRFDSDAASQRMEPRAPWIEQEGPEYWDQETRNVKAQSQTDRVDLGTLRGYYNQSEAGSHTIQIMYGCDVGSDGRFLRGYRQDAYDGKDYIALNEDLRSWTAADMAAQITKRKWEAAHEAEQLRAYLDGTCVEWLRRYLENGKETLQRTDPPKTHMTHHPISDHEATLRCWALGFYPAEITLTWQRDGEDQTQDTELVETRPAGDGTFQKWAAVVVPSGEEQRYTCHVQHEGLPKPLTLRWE
HLA-A3, sequence (P61769 21-119, further chain): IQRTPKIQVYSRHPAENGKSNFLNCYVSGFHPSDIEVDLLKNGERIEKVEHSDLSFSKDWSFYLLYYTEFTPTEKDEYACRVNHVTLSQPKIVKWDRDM
HLA-B7, sequence (P61769 21-119): as the sequence (P61769 21-119, further chain) above
HLA-B7, sequence (P01889 25-299): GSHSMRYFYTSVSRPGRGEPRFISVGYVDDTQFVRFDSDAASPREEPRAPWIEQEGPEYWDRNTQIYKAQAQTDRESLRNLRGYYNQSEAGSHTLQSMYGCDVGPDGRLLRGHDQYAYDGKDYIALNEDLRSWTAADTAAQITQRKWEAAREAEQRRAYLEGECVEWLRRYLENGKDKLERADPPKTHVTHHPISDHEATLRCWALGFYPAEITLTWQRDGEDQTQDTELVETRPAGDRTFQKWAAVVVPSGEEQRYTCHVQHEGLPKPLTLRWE

## Concanavalin A [ConA, reference compound]
[1]; Patient A (HCV patient)
  IFN-g ELISPOT (T-cell spots): 5090 and 5035
[1]; Patient B (HCV patient)
  IFN-g ELISPOT (T-cell spots): 2605 and 2725
[1]; Patient C (HCV patient)
  IFN-g ELISPOT (T-cell spots): 1355 and 700
[1]; Patient D (HCV patient)
  IFN-g ELISPOT (T-cell spots): 529 and 512

## EEGYIPLVGAPLGEEVARALAHGVRV [compound 10, HCV (Not scaffold)]
Human PBMCs [2]
  Intracellular staining, median: 1.16
Human PBMCs [3]
  Extracellular staining, median: 1.95

## GGGYIPLVGAPLGGGVARALAHGVRV [compound 11, HCV (Not scaffold)]
Human PBMCs [2]
  Intracellular staining, median: 2.01
Human PBMCs [3]
  Extracellular staining, median: 2.62

## GYIPLVGAPLGGVARALAHGVRV [compound 5]
Human PBMCs [2]
  Intracellular staining, median: 1.84
Human PBMCs [3]
  Extracellular staining, median: 2.08

## PVVHLTLRQAGDDFSR [N-biotin, reference compound]
DC-cells; BC 16
  Results on DC-cells (geomean peptide-fluorescence): 3591 and 2271
DC-cells; BC 16, listed as n-biotin
  Results on DC-cells (geomean peptide-fluorescence): 3745
DC-cells; BC43
  Results on DC-cells (geomean peptide-fluorescence): 3631
DC-cells; BC43, listed as n-biotin
  Results on DC-cells (geomean peptide-fluorescence): 1967
Human PBMCs [2]
  Intracellular staining, median: 1.00
Human PBMCs [3]; [4]
  Extracellular staining, median: 1.00

## RGYIPLVGAPLGRRRVARALAHGVRVR [compound 6]
Human PBMCs [2]
  Intracellular staining, median: 5.35
Human PBMCs [3]
  Extracellular staining, median: 2.20

## RGYLPAVGAPIGRRRVIRVIAHGLRLR [compound 7]
Human PBMCs [2]
  Intracellular staining, median: 11.59
Human PBMCs [3]
  Extracellular staining, median: 29.42

## RQIKIWFQNRRMKWKK [P-biotin, reference compound]
DC-cells; BC43
  Results on DC-cells (geomean peptide-fluorescence): 26212 and 33545
Human PBMCs [2]
  Intracellular staining, median: 2.73
Human PBMCs [3]; [4]
  Extracellular staining, median: 9.15

## RRGGGQIVGGVYLLPRRGPRLGVRATR [compound 14]
Human PBMCs [2]
  Intracellular staining, median: 4.81
Human PBMCs [3]
  Extracellular staining, median: 17.00

## RRGPVVHLTLRRRGQAGDDFS [compound 2, Neg control in scaffold, reference compound]
Human PBMCs [2]
  Intracellular staining, median: 4.12
Human PBMCs [3]
  Extracellular staining, median: 1.77

## RRGYIPLVGAPLGRRRVARALAHGVRV [compound 9]
Human PBMCs [2]
  Intracellular staining, median: 3.25
Human PBMCs [3]
  Extracellular staining, median: 2.06

## RRGYIPLVGAPLGRRVARALAHGVRV [compound 8]
Human PBMCs [2]
  Intracellular staining, median: 6.92
Human PBMCs [3]
  Extracellular staining, median: 3.06

## RRIRNLGRVIETLTLZGYIPLIGARRIRNLGRVIETLTLZGYIPLIGAR [compound 20]
Human PBMCs [2]
  Intracellular staining, median: 13.25
Human PBMCs [3]
  Extracellular staining, median: 126.5

## RRSRNLGKVIDTLTCRRLMGYIPLVGA [compound 13]
Human PBMCs [2]
  Intracellular staining, median: 21.43
Human PBMCs [3]
  Extracellular staining, median: 16.80

## WGYIPLVGAPLGRRVARALAHGVRV [compound 19]
DC-cells; BC 16
  Results on DC-cells (geomean peptide-fluorescence): 8417
DC-cells; BC43
  Results on DC-cells (geomean peptide-fluorescence): 6372
Human PBMCs [2]
  Intracellular staining, median: 17.41
Human PBMCs [3]
  Extracellular staining, median: 1.37

## YVTGNIPGS
HLA-B8
  REVEAL binding score, HLA-type B8: 12.40%
HLA-A29
  REVEAL binding score, HLA-type A29: 10.29%
HLA-B7
  REVEAL binding score, HLA-type B7: 2.70%
HLA-A2
  REVEAL binding score, HLA-type A2: 6.88%
HLA-B27
  REVEAL binding score, HLA-type B27: 1.98%
HLA-A11
  REVEAL binding score, HLA-type A11: 5.18%
HLA-A3
  REVEAL binding score, HLA-type A3: 5.34%
HLA-B14
  REVEAL binding score, HLA-type B14: 0.76%
HLA-B15
  REVEAL binding score, HLA-type B15: 6.16%
HLA-A24
  REVEAL binding score, HLA-type A24: 2.71%
HLA-A1
  REVEAL binding score, HLA-type A1: 13.33%
HLA-B35
  REVEAL binding score, HLA-type B35: 4.42%
HLA-B40
  REVEAL binding score, HLA-type B40: 88.29%

## [Cit]IGVRAT[Cit]R
HLA-B8
  REVEAL binding score, HLA-type B8: 12.09%
HLA-A29
  REVEAL binding score, HLA-type A29: 16.67%
HLA-B7
  REVEAL binding score, HLA-type B7: 14.59%
HLA-A2
  REVEAL binding score, HLA-type A2: 8.17%
HLA-B27
  REVEAL binding score, HLA-type B27: 0.86%
HLA-A11
  REVEAL binding score, HLA-type A11: 8.27%
HLA-A3
  REVEAL binding score, HLA-type A3: 25.16%
HLA-B14
  REVEAL binding score, HLA-type B14: 0.17%
HLA-B15
  REVEAL binding score, HLA-type B15: 14.45%
HLA-A24
  REVEAL binding score, HLA-type A24: 0.50%
HLA-A1
  REVEAL binding score, HLA-type A1: 19.68%
HLA-B35
  REVEAL binding score, HLA-type B35: 8.51%
HLA-B40
  REVEAL binding score, HLA-type B40: 18.45%

## [Nle]GYIPLIGA
HLA-B8
  REVEAL binding score, HLA-type B8: 21.35%
HLA-A29
  REVEAL binding score, HLA-type A29: 27.85%
HLA-B7
  REVEAL binding score, HLA-type B7: 1.78%
HLA-A2
  REVEAL binding score, HLA-type A2: 10.43%
HLA-B27
  REVEAL binding score, HLA-type B27: 1.42%
HLA-A11
  REVEAL binding score, HLA-type A11: 7.27%
HLA-A3
  REVEAL binding score, HLA-type A3: 3.13%
HLA-B14
  REVEAL binding score, HLA-type B14: 0.29%
HLA-B15
  REVEAL binding score, HLA-type B15: 11.07%
HLA-A24
  REVEAL binding score, HLA-type A24: 1.33%
HLA-A1
  REVEAL binding score, HLA-type A1: 17.87%
HLA-B35
  REVEAL binding score, HLA-type B35: 5.89%
HLA-B40
  REVEAL binding score, HLA-type B40: 60.84%
